IC50 data for 27 compounds are collected here from ChEMBL document CHEMBL1177653, “Synthesis and antiplasmodial activity of lycorine derivatives” (Bioorg Med Chem, 2010).

SMILES strings stand for the structures. Where only a bound is given, the exact number is not on record here.

This experiment concerns Plasmodium falciparum. Put plainly: Antiplasmodial activity against Plasmodium falciparum F32-Tanzania after 48 hrs.
In turn, `CC(=O)Oc1cc2c3c(c1)c1cc4c(cc1c(=O)n3CC2)OCO4` displayed an IC50 of 9.2 µM.
`C=Cc1cccc2c1N(C)Cc1cc3c(cc1-2)OCO3` gave an IC50 of 11.3 µM.
With `C=Cc1cccc2c1N(CCCC)Cc1cc(O)c(O)cc1-2`, the IC50 is over 100 µM.
In the case of `CCC(=O)O[C@H]1[C@H]2c3cc4c(cc3CN3CCC(=C[C@@H]1OC(=O)CC)[C@H]23)OCO4`, the IC50 turned out to be 2.7 µM.
The compound `O=C1C=C2CCN3Cc4cc5c(cc4[C@H]([C@@H]1O)[C@@H]23)OCO5` yielded an IC50 of 14.7 µM. Against the preceding compound, the IC50 is about 5.4-fold higher.
In turn, `CC(=O)O[C@H]1[C@H]2c3cc4c(cc3C(=O)N3CCC(=C[C@@H]1O)[C@H]23)OCO4` came in with an IC50 of over 100 µM.
As to `CC(=O)O[C@@H]1[C@@H](OC(C)=O)[C@H](O)[C@@]2(O)CCN3C(=O)c4cc5c(cc4[C@H]1[C@H]32)OCO5`, the IC50 is over 100 µM.
Next, `CC(=O)O[C@H]1[C@H]2c3cc4c(cc3CN3CCC(=C[C@@H]1O)[C@H]23)OCO4`: 0.9 µM; `C=Cc1cccc2c3cc4c(cc3c(=O)n(C)c12)OCO4`: over 100 µM.
Next, `CCCCN1Cc2cc3c(cc2-c2cccc(CC)c21)OCO3`: 7.4 µM; `C=Cc1cccc2c3cc4c(cc3c(=O)n(CC)c12)OCO4`: over 100 µM.
Regarding `C=Cc1cccc2c1N(C)Cc1cc(OC(=O)CCCCCCCCCCC)c(OC(=O)CCCCCCCCCCC)cc1-2`, 47 µM corresponded to half-maximal inhibition (IC50).
For `C=Cc1cccc2c3cc4c(cc3c(=O)n(CCCC)c12)OCO4`, the IC50 is over 100 µM.
`C=Cc1cccc2c1N(CCCCCCCCCCC)Cc1cc3c(cc1-2)OCO3`: the IC50 came out at 7.4 µM.
In turn, `O[C@H]1[C@H]2c3cc4c(cc3CN3CCC(=C[C@@H]1O)[C@H]23)OCO4` [LYCORINE] came in with an IC50 of 0.13 µM.
Regarding `CC(=O)O[C@H]1[C@H]2c3cc4c(cc3CN3CCC(=C[C@@H]1OC(C)=O)[C@H]23)OCO4`, the IC50 was found to be 0.26 µM.
As for `C=Cc1cccc2c1N(C)Cc1cc(OC)c(OC)cc1-2`, inhibition was half-maximal at 12.4 µM (IC50).
For the compound `C=Cc1cccc2c1N(CC)Cc1cc3c(cc1-2)OCO3`, the IC50 was 86 µM.
In the case of `C=Cc1cccc2c1N(CCCC)Cc1cc(OC(C)=O)c(OC(C)=O)cc1-2`, the IC50 was found to be 0.8 µM.
`CC(=O)Oc1cc2c(cc1OC(C)=O)[C@@H]1[C@H](O)[C@@H](OC(C)=O)C=C3CCN(C2)[C@H]31` came in with an IC50 of 8.4 µM. Against the preceding compound, the IC50 is about 10-fold higher.
In turn, `CC(=O)O[C@H]1[C@H]2c3cc4c(cc3CN3CC[C@@H](C[C@@H]1OC(C)=O)[C@H]23)OCO4` came in with an IC50 of 34.8 µM. This IC50 lies about 4.1-fold higher than the previous one.
As to `C=Cc1cccc2c1N(C)Cc1cc(O)c(O)cc1-2`, inhibition was half-maximal at 1.1 µM (IC50).
With `CCc1cccc2c1N(C)Cc1cc3c(cc1-2)OCO3`, the IC50 is over 100 µM.
Regarding `C=Cc1cccc2c1N(C)Cc1cc(OC(C)=O)c(OC(C)=O)cc1-2`, the IC50 was determined as 0.9 µM.
On to `CCC(C)C(=O)O[C@H]1[C@H]2c3cc4c(cc3CN3CCC(=C[C@@H]1OC(=O)C(C)CC)[C@H]23)OCO4` (some centres not stated), for which it took 0.6 µM to reach half-maximal inhibition (IC50).
`C=Cc1cccc2c1N(CCCC)Cc1cc3c(cc1-2)OCO3` registered an IC50 of 9.7 µM.
The same measure for `CC(=O)O[C@H]1[C@H]2c3cc4c(cc3C(=O)N3CCC(=C[C@@H]1OC(C)=O)[C@H]23)OCO4`: over 100 µM.
